# According to patent publication US9089543B2, “Anti-inflammatory composition containing macrolactin A and a derivative thereof as active ingredients” (DAEWOO PHARMACEUTICAL IND. CO., LTD., priority 2009, dated 2015):
# “Also recorded” adds a separate entry of the source.
# What was measured:
# [1] = tested on: GM-CSF formation in RAW264.7 cells; test: Inhibition of GM-CSF formation (mouse ELISA kit) in LPS-stimulated RAW264.7 cells; format: cell-based, murine; conditions: RAW264.7, LPS
# Description: (§1) The present inventors have confirmed the anti-inflammatory effects of the above macrolactin compounds to accomplish the present invention. In order to investigate the anti-inflammatory effects, a murine macrophage RAW264.7 cell line treated with each of the purified compounds was stimulated by LPS (0.1 μg/mL or 1.0 μg/mL, Sigma), and then the formation of inflammation-inducing substances 1) NO and 2) PEG2 and the expression of enzymes related to their formation were analyzed. The formation of 3) pro-inflammatory cytokines, TNF-α, IL-1β, IL-6 and GM-CSF were also analyzed by the same procedures.
# (§2) 3) Suppression of pro-inflammatory cytokines by the present macrolactin compounds was determined by using a mouse ELISA kit (KOMA Biotech).
# (§3) RAW264.7, a murine macrophage cell line, was obtained from Korean Cell Line Bank (KCLB). It was cultured in Dulvecco's modified Eagle's medium (DMEM, LONZA) containing 10% fetal bovine serum (FBS, LONZA) and 1% penicillin/streptomycin (Sigma) in an incubator at 37° C. under 5% CO2 and then sub-cultured when the cell density reached 80%. After RAW264.7 cells were cultured for 24 hours, MA (1-100 μM), MMA (10 μM), SMA (10 μM) and hydrocortisone (10 μM), which is a well-known substance having anti-inflammatory activity, were added. One hour after the addition, LPS (0.1 or 1.0 μg/ml, Sigma) was added to the mixture, which was then cultured for 8 or 16 hours. […]
# [2] = tested on: COX-2 mRNA; test: Expression of COX-2 mRNA by real-time PCR in LPS-stimulated RAW264.7 cells; format: cell-based, murine; conditions: RAW264.7, LPS 0.1 μg/ml, 16 hours
# Description: (§4) RAW264.7, a murine macrophage cell line, was obtained from Korean Cell Line Bank (KCLB). It was cultured in Dulvecco's modified Eagle's medium (DMEM, LONZA) containing 10% fetal bovine serum (FBS, LONZA) and 1% penicillin/streptomycin (Sigma) in an incubator at 37° C. under 5% CO2 and then sub-cultured when the cell density reached 80%. After RAW264.7 cells were cultured for 24 hours, MA (1-100 μM), MMA (10 μM), SMA (10 μM) and hydrocortisone (10 μM), which is a well-known substance having anti-inflammatory activity, were added. One hour after the addition, LPS (0.1 or 1.0 μg/ml, Sigma) was added to the mixture, which was then cultured for 8 or 16 hours. Dimethyl sulfoxide (hereinafter, “DMSO”) was used as a negative control, while LPS (0.1 or 1.0 μg/ml, Sigma) was used as a positive control without adding the macrolactin compounds.
# The effect of the present macrolactin compounds on the expression of intracellular inflammatory factors, iNOS and COX-2 mRNA was investigated. Murine macrophage RAW264.7 cells adjusted to 1×10^5 cells/well were cultured in a 6-well plate for 24 hours under the conditions mentioned in Example 2 and then further cultured for 16 hours after being treated with the present macrolactin compounds and LPS (0.1 μg/ml, Sigma). Total RNA of the cultured cells was isolated by Trizol reagent (Sigma) under RNase-free conditions. A cDNA synthesis kit (TAKARA) was used to obtain a template for PCR using the separated total RNA. […]
# The extent of iNOS and COX-2 mRNA expression of the mixture was determined by using a real-time gene amplifier (Corbett Life Science Rotor-gene 6000). […] When the mRNA expressions of the samples were compared with each other, that of the housekeeping gene was determined at the same time and then the relative quantity was calculated. By compensating the amount of RNA for the measured value of the housekeeping gene, the amount of mRNA produced in each sample was calculated to Ct (Threshold cycle) value.
# [3] = tested on: iNOS protein; test: Formation of iNOS protein by western blot in LPS-stimulated RAW264.7 cells; format: cell-based, murine; conditions: RAW264.7, LPS 0.1 μg/ml, 16 hours
# Description: as §4
# (§5) The effect of the present macrolactin compounds on the formation of intracellular inflammatory factor, iNOS and COX-2 protein was investigated. Murine macrophage RAW264.7 cells adjusted to 1×10^6 cells/dish were cultured in a 100 mm dish for 24 hours under the conditions mentioned in Example 2 and then further cultured for 16 hours after being treated with the present macrolactin compounds and LPS (0.1 μg/ml, Sigma). The cells were washed 2-3 times with cold PBS and then collected. 100 μl of 50 mM Tris-HCl buffer, pH7.5 (0.1 M KCl, 1 mM EDTA, 1 mM DTT, 0.2 mM PMSF) were added to the collected cells, which were lysed by using liquid nitrogen. The lysate was centrifuged at 4° C. for 10 minutes at 13,000 rpm to collect the supernatant. Protein was quantitatively analyzed by the Bradford method. 50 μg of the protein was subjected to sodium dodecyl sulfate-polyacrylamide gel electrophoresis (SDS-PAGE). The SDS-PAGE gel was transferred to nitrocellulose membrane (Amersham) at 50 V for 2 hours. The nitrocellulose membrane was washed twice with 1× Tris buffered saline (TBS; 0.1 M NaCl, 10 mM Tris-HCl), to which was added 3% gelatin solution for blocking non-specific protein reaction and then reacted at room temperature for 1 hour. […]
# [4] = tested on: IL-6 formation in RAW264.7 cells; test: Inhibition of IL-6 formation (mouse ELISA kit) in LPS-stimulated RAW264.7 cells; format: cell-based, murine; conditions: RAW264.7, LPS
# Description: as §1, §2, §4
# [5] = tested on: iNOS mRNA; test: Expression of iNOS mRNA by real-time PCR in LPS-stimulated RAW264.7 cells; format: cell-based, murine; conditions: RAW264.7, LPS 0.1 μg/ml, 16 hours; for inhibition of expression of iNOS mRNA: real-time PCR; for inhibition of iNOS mRNA expression compared to hydrocortisone: relative to hydrocortisone (10 μM)
# Description: as §4
# The effect of the present macrolactin compounds on the expression of intracellular inflammatory factors, iNOS and COX-2 mRNA was investigated. Murine macrophage RAW264.7 cells adjusted to 1×10^5 cells/well were cultured in a 6-well plate for 24 hours under the conditions mentioned in Example 2 and then further cultured for 16 hours after being treated with the present macrolactin compounds and LPS (0.1 μg/ml, Sigma). Total RNA of the cultured cells was isolated by Trizol reagent (Sigma) under RNase-free conditions. A cDNA synthesis kit (TAKARA) was used to obtain a template for PCR using the separated total RNA. To the mixture of 1 μl of Oligo dT Primer (50 μM), 1 μl of dNTP Mixture (10 mM each) and 2 μg of the template RNA, RNase-free dH2O was added to adjust the total volume to 10 μl. The mixture was maintained at 65° C. for 5 minutes and then in ice for 2 minutes. To the mixture of 10 μl of the mixture, 4 μl of 5× PrimeScript™ buffer, 0.5 μl of RNase inhibitor (40 U/μl), and 0.5 μl of PrimeScript™ RTase (200 U/μl), RNase-free dH2O was added to adjust the total volume to 20 μl. The mixture was reacted at 42° C. for 30 minutes to synthesize cDNA.
# The extent of iNOS and COX-2 mRNA expression of the mixture was determined by using a real-time gene amplifier (Corbett Life Science Rotor-gene 6000). The operating condition of the real-time gene amplifier was as follows: initial denaturation started at 95° C. for 5 minutes and was then repeated 50 times at 94° C. for 30 seconds, at 57° C. for 30 seconds and 72° C. for 30 seconds. When the mRNA expressions of the samples were compared with each other, that of the housekeeping gene was determined at the same time and then the relative quantity was calculated. By compensating the amount of RNA for the measured value of the housekeeping gene, the amount of mRNA produced in each sample was calculated to Ct (Threshold cycle) value.
# [6] = tested on: TNF-α formation in RAW264.7 cells; test: Inhibition of TNF-α formation (mouse ELISA kit) in LPS-stimulated RAW264.7 cells; format: cell-based, murine; conditions: RAW264.7, LPS; for inhibition of TNF-α formation: vs control treated with LPS only
# Description: as §1, §2, §4
# [7] = tested on: vancomycin-resistant Enterococci (VRE), methicillin-resistant Staphylococcus aureus (MRSA) and Burkholderia cepacia; conditions: against VRE, compounds from Bacillus subtilis DSM 16696; cited from earlier work
# [8] = tested on: NO formation in RAW264.7 cells; test: Inhibition effect on NO formation (Griess reaction) in LPS-stimulated RAW264.7 cells; format: cell-based, murine; conditions: RAW264.7, LPS 0.1 μg/ml, 16 hours; MA 1-100 μM, MMA, SMA, hydrocortisone 10 μM; vs control treated with LPS only
# Description: as §4
# NO concentration in cell culture was determined by using a Nitrate/Nitrite colorimetric assay Kit (Cayman). Murine macrophage RAW264.7 cells adjusted to 1×10^5 cells/well were cultured in a 6-well plate for 24 hours under the conditions mentioned in Example 2, and then further cultured for 16 hours after being treated with the present macrolactin compounds and LPS (0.1 μg/ml, Sigma). The cultured media were treated with Griess reagent R1 (sulfanilamide) and then Griess reagent R2 (N-(1-Naphthyl)-ethylenediamine) in a 96-well plate provided by the manufacturer, and then detected the formation of purple azo group from nitrite. The amount of produced NO was calculated using the calibration curve which had been made through the standard solution provided by the manufacturer at an absorbance of 540 nm in a UV spectrometer.
# [9] = tested on: COX-2 protein; test: Formation of COX-2 protein by western blot in LPS-stimulated RAW264.7 cells; format: cell-based, murine; conditions: RAW264.7, LPS 0.1 μg/ml, 16 hours
# Description: as §4, §5
# [10] = tested on: IL-1β formation in RAW264.7 cells; test: Inhibition of IL-1β formation (mouse ELISA kit) in LPS-stimulated RAW264.7 cells; format: cell-based, murine; conditions: RAW264.7, LPS
# Description: as §1, §2, §3
# [11] = tested on: PGE2 formation in RAW264.7 cells; test: Inhibition effect on PGE2 formation (EIA kit) in LPS-stimulated RAW264.7 cells; format: cell-based, murine; conditions: RAW264.7, LPS 0.1 μg/ml, 16 hours; vs control treated with LPS only
# Description: as §4
# The amount of formed PGE2, an intracellular […] factor, was determined by using an Amersham prostaglandin E2 biotrak Enzymeimmunoassay (EIA) system Kit (GE Healthcare). Murine macrophage RAW264.7 cells adjusted to 2×10^4 cells/well were cultured in a 96-well plate for 24 hours under the conditions mentioned in Example 2 and then further cultured for 16 hours after being treated with the present macrolactin compounds and LPS (0.1 μg/ml, Sigma). The amount of produced PGE2 was calculated using the calibration curve which had been made through the standard solution provided by the manufacturer at an absorbance of 450 nm in a UV spectrometer. The r^2 value of the calibration curve against the standard substance was above 0.99.
# [12] = tested on: murine macrophage RAW264.7; test: Cytotoxicity by MTT analysis; format: cell-based; conditions: RAW264.7, MTT, 16 hours
# Description: as §4
# MTT analysis was used to investigate the cytotoxic effects on murine macrophage RAW264.7 of the present macrolactin compounds. The cells adjusted to 4×10^4 cells/well were cultured in a 96-well plate for 24 hours under the conditions mentioned in Example 2 and then further cultured for 16 hours after being treated with the present macrolactin compounds. After the medium was removed, 100 μl of MTT solution (2 mg/ml PBS) was added, and then the mixture was cultured in an incubator at 37° C. under 5% CO2 for 4 hours. After the MTT solution was removed, 100 μl of DMSO was added, and then the mixture was shake-cultured for 30 minutes in the dark. After the culture, the amount of free formazan was determined at 540 nm by using an ELISA reader.
Structure (SMILES),inhibition of GM-CSF formation [1],inhibition of expression of COX-2 mRNA [2],inhibition of formation of iNOS protein [3],inhibition of IL-6 formation [4],inhibition of expression of iNOS mRNA [5],inhibition of iNOS mRNA expression compared to hydrocortisone [5],inhibition effect on TNF-α formation compared to hydrocortisone / control substances ([6]; relative to hydrocortisone),inhibition of TNF-α formation [6],anti-bacterial activity [7],inhibition of NO formation [8],inhibition of formation of COX-2 protein [9],inhibition of IL-1β formation [10],inhibition of PGE2 formation [11],cytotoxicity compared to hydrocortisone [12]
"CC1CCC/C=C/C=C/[C@H](O)C[C@@H](O)C/C=C\C=C\[C@@H](O)C/C=C/C=C\C(=O)O1 (stereo partly drawn) [MA, macrolactin A]",strongly inhibited,strongly inhibited,strongly inhibited,strongly inhibited,strongly suppressed; also recorded: strongly inhibited,comparable to or superior to that of hydrocortisone,especially superior inhibition effect,inhibited,anti-bacterial effect against MRSA only,strongly inhibited,strongly inhibited,strongly inhibited,strongly inhibited,lower cytotoxicities
"C[C@@H]1CCC/C=C/C=C/[C@H](O)C[C@@H](O)C/C=C\C=C\[C@@H](OC(=O)CC(=O)O)C/C=C/C=C\C(=O)O1 [MMA, 7-O-malonyl macrolactin A]",,strongly inhibited,strongly inhibited,strongly inhibited,strongly suppressed; also recorded: strongly inhibited,comparable to or superior to that of hydrocortisone,,inhibited,superior anti-bacterial activity,strongly inhibited; also recorded: low inhibition activities,strongly inhibited,,strongly inhibited,lower cytotoxicities
"C[C@@H]1CCC/C=C/C=C/[C@H](O)C[C@@H](O)C/C=C\C=C\[C@@H](OC(=O)CCC(=O)O)C/C=C/C=C\C(=O)O1 [SMA, 7-O-succinyl macrolactin A]",strongly inhibited,strongly inhibited,strongly inhibited,strongly inhibited,strongly suppressed; also recorded: strongly inhibited,comparable to or superior to that of hydrocortisone,,inhibited,superior anti-bacterial activity,strongly inhibited; also recorded: low inhibition activities,strongly inhibited,strongly inhibited,strongly inhibited,lower cytotoxicities
"C[C@]12CCC(=O)C=C1CC[C@@H]1[C@@H]2[C@@H](O)C[C@@]2(C)[C@H]1CC[C@]2(O)C(=O)CO [hydrocortisone, reference compound]",,,,,,,,,,strongly inhibited,,,,
